Here are results for one compound from ChEMBL document CHEMBL1201862, “PubChem BioAssay data set” (2004).

Active and inactive are the calls of the source. Rule as the data show it: actives have a measured IC50 and inactives only a lower limit.

Assay [1] deals with Alkaline phosphatase, placental type (Homo sapiens, UniProt P05187). Kind of assay: human placental alkaline phosphatase inhibition – biochemical, luminescence, confirmation (AID 1512). The assay is classed as functional.
Assay [2] deals with T1, Alkaline phosphatase, tissue-nonspecific isozyme (Homo sapiens, UniProt P05186).
T1 sequence (P05186 whole entry): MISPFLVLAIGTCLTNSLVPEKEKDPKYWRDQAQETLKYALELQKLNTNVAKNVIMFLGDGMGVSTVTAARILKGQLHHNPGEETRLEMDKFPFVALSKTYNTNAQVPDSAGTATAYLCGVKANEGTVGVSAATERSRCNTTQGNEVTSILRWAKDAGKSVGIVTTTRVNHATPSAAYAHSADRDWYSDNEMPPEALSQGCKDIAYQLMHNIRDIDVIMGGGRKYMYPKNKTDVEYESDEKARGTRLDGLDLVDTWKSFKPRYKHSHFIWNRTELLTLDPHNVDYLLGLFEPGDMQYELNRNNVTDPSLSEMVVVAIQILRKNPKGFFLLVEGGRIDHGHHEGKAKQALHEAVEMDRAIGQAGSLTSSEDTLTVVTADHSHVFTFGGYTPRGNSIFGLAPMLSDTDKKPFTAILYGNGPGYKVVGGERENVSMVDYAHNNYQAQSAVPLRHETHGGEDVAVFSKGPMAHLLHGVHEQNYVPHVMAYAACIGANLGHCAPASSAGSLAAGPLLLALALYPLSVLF
Kind of assay: potency against alkaline phosphatase TNAP – biochemical, luminescent, dose response, SAR follow-up (AID 1056).

Chain of Alkaline phosphatase, placental type (P05187 whole entry): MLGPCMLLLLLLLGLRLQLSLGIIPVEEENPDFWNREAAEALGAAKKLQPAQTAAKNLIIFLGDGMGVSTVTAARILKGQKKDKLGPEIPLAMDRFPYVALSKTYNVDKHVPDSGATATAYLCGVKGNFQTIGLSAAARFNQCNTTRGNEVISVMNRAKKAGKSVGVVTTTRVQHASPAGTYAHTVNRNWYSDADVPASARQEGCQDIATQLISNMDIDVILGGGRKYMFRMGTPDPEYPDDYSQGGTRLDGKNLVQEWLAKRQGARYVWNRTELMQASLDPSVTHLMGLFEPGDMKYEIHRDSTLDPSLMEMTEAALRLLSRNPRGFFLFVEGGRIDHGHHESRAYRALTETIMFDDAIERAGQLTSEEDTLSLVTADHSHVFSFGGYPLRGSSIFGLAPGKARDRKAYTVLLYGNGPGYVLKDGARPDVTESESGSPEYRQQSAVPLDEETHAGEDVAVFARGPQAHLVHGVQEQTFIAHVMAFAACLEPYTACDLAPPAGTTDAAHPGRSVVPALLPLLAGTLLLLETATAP

`CCOC(=O)NC1(C(Cl)(Cl)Cl)Oc2ccc(Cl)cc2O1` (configuration not stated): the IC50 (as a rule, the concentration needed to halve the response being measured) in assay [1] is 55.5 µM (active); in assay [2], > 100 µM (inactive).
